Experimental data: patent US12472185B2, “Methods for killing antibiotic tolerant bacteria” (THE PENN STATE RESEARCH FOUNDATION, priority 2020, dated 2025)

Assays:
S. aureus = experiment: Lysis assays (total protein and DNA in supernatants); type: cell-based, Staphylococcus aureus; details: 100 μM, 6 hr
Experimental: (§1) FIG. 5. NPIMA lyses Escherichia coli, Pseudomonas aeruginosa, and Staphylococcus aureus. Total protein (a) and DNA (b) found in supernatants as evidence of cell lysis after treatment of cells at a turbidity of 0.8 at 600 nm with 100 μM NPIMA after 1 hr for E. coli and P. aeruginosa and 6 hr for S. aureus. NPIMA, 5-nitro-3-phenyl-1H-indol-2-yl-methylamine hydrochloride.
(§2) Exponentially-growing E. coli BW25113 cells (turbidity 0.8 at 600 nm) were washed twice with 0.85% NaCl, resuspended in 1 ml of 1×PBS, and NPIMA (100 μM) was added for 1 hr for E. coli and P. aeruginosa and 6 hr for S. aureus with shaking at 250 rpm (0.1% DMSO was used as the negative control). Cell supernatants were collected after centrifuging at 6,500 g (4° C. for 15 min), and total protein was measured by the Bicinchoninic Acid (BCA) protein assay Kit (Prod #23227; Pierce). DNA in the supernatant (199 μl) was detected by adding 1 μl of Picogreen (P7589; Invitrogen) and incubating for 5 min at room temperature in the dark room. The fluorescence signal was read by a Tecan microplate reader (Infinite M200PRO) with 480 nm excitation and 520 nm emission by utilizing a calibration curved made with plasmid pEX18Ap at 0, 0.004, 0.008, 0.016, 0.063, 0.125, 0.25, and 0.5 ng/μl.

[1] = system: P. aeruginosa PA14 exponentially-growing cells; experiment: Killing at one MIC in PBS, NPIMA compared with cisplatin; type: cell-based, Pseudomonas aeruginosa; details: 3 hr
Excerpt: (§3) FIG. 7. NPIMA compared width cisplatin for killing Pseudomonas aeruginosa, Escherichia coli, and Staphylococcus aureus. Survival of exponentially-growing cells of P. aeruginosa PA14 (a), E. coli (b), and S. aureus (c) treated with one MIC of NPIMA (♦) and cisplatin (●) for 3 hr in PBS. DMSO (▴) and NaClO4 (*) were used as a negative controls. MIC, minimum inhibitory concentration; NPIMA, 5-nitro-3-phenyl-1H-indol-2-yl-methylamine hydrochloride.
(§4) For bacterial viability, cells were washed twice with 0.85% NaCl, resuspended in 1×PBS, and cell counts were determined via the drop assay (Donegan, Matyac, Seidler, & Porteous, 1991). For human cell viability, pre-cultured human cancer HT-29 cells were dispensed in 98 μl in 96-well plates with approximately 5,000 cells/well. NPIMA was added (2 μl) to produce concentrations of 5, 10, 100, and 200 μM. For controls, Triton X-100 (positive control) and DMSO (negative solvent control), were used, and the medium was used for background. Plates were incubated in a humidified incubator (37° C., 5% CO2) for 24 hr. Cell viability was determined via a cell counting kit (CCK-8 Kit, ab228554; Abcam), and cytotoxicity was determined via the lactate dehydrogenase (LDH) assay (LDH Assay Kit, MK401; Takara).

[2] = system: E. coli BW25113 exponential cells; experiment: Survival of exponentially-growing cells (drop assay); type: cell-based, Escherichia coli
Experimental: FIG. 2. NPIMA eradicates Escherichia coli, Pseudomonas aeruginosa, and Staphylococcus aureus exponential cells. Survival after 6 hr for (a) E. coli BW25113 with NPIMA and 5-iodoindole at 100 μM, (b) P. aeruginosa PA14 with NPIMA and 5-iodoindole at 100 μM, and (c) S. aureus with NPIMA and 5-iodoindole at 200 μM. Asterisk indicates no viable cells detected. NPIMA, 5-nitro-3-phenyl-1H-indol-2-yl-methylamine hydrochloride.
FIG. 8. NPIMA structure function relationships. Exponential cells of Escherichia coli BW25113 were treated with (a) 2-(aminomethyl) indole, and (b) 2-methyl-5-nitro-3-phenyl-1H-indole for 6 hr. NPIMA, 5-nitro-3-phenyl-1Hindol-2-yl-methylamine hydrochloride.
as §4

E coli = experiment: Resistance test by daily propagation at 0.25 MIC; type: cell-based, Escherichia coli; details: 7 days at 0.25 MIC (25 μM), then 1 MIC (100 μM) overnight
Experimental: After 7 days, the sequentially-propagated E. coli cells were contacted with LB with 1 MIC of NPIMA (100 μM) and incubated overnight to allow any putative resistant cells to grow and increase the turbidity.

[3] = system: E. coli exponentially-growing cells; experiment: Killing at one MIC in PBS, NPIMA compared with cisplatin; type: cell-based, Escherichia coli; details: 3 hr
Excerpt: as §3, §4

[4] = system: P. aeruginosa PA14 persister cells; experiment: Survival of persister cells (CCCP/ciprofloxacin generated); type: cell-based, Pseudomonas aeruginosa; details: 100 μM
Experimental: FIG. 3. NPIMA kills Escherichia coli, Pseudomonas aeruginosa, persister cells. Survival of (a) E. coli BW25113 and (b) P. aeruginosa PA14 after treatment with NPIMA (100 μM), 5-iodoindole (5-II, 100 μM), and DMSO for 6 hr. Asterisk indicates no viable cells detected. DMSO, dimethyl sulfoxide; NPIMA, 5-nitro-3-phenyl-1H-indol-2-yl-methylamine hydrochloride.
E. coli persister cells were prepared following our previous method (Kim, Yamasaki, et al., 2018; Kwan, Valenta, Benedik, & Wood, 2013). Exponentially-growing cells (turbidity of 0.8 at 600 nm) were treated with rifampicin (100 μg/ml for 30 min) to stop transcription, washed, and any remaining nonpersister cells were lysed by ampicillin in LB (100 μg/ml for 3 hr). Cells were harvested by centrifugation (17,000 g for 1 min) and washed with 1× phosphate-buffered saline buffer (PBS, 8 g NaCl, 0.2 g KCl, 1.15 g Na2HPO4, and 0.2 g KH2PO4 per 1,000 ml) twice to remove all possible carbon sources, then resuspended with 1×PBS. […]
For bacterial viability, cells were washed twice with 0.85% NaCl, resuspended in 1×PBS, and cell counts were determined via the drop assay (Donegan, Matyac, Seidler, & Porteous, 1991). […] Cell viability was determined via a cell counting kit (CCK-8 Kit, ab228554; Abcam), and cytotoxicity was determined via the lactate dehydrogenase (LDH) assay (LDH Assay Kit, MK401; Takara).

P. aeruginosa = experiment: Lysis assays (total protein and DNA in supernatants); type: cell-based, Pseudomonas aeruginosa; details: 100 μM, 1 hr
Experimental: as §1, §2

In the case of `Cl.NCc1[nH]c2ccc([N+](=O)[O-])cc2c1-c1ccccc1` [NPIMA, [(5-nitro-3-phenyl-1H-indol-2-yl)methyl]amine hydrochloride], the “DNA released compared with DMSO alone” value (S. aureus) is reported as 1.82±0.05 fold, the “total protein released compared with DMSO alone” value (S. aureus) is reported as 2.9±0.1 fold and the “effectiveness relative to cisplatin” value [1] is reported as “less effective”. The “time to eradicate exponentially-growing E. coli” value ([2]; 100 μM (1 MIC)) was ≤ 3 h, the “killing of exponential E. coli cells” value ([2]; 100 μM, 6 hr) was “eradicated” and the resistance after propagation (E coli) was “all of the E. coli cells were killed”. The “effectiveness relative to cisplatin” value [3] was “more effective than cisplatin”, the “time to eradicate P. aeruginosa persister cells” value [4] was 3 h and the “increase in DNA released compared to DMSO alone” value (P. aeruginosa) was 1.19±0.09 fold. For the same molecule, the “total protein released compared to DMSO alone” value (P. aeruginosa) was 4.0±0.4 fold.
